Measurements reported in patent publication US20250101011A1, “PEPTIDYL NITRILE COMPOUND AND USE THEREOF” (SHANGHAI YIDIAN PHARMACEUTICAL TECHNOLOGY DEVELOPMENT CO., …, priority 2022, published 2025).

Biological target: DPP1 (Homo sapiens (Human), UniProt P53634)
Test: DPP1 activity inhibition test on U937 cells
Assay type: cell-based
Conditions: substrate h-Gly-phe-AFC; for inhibition at 0.005 µM: U-937, 5 nM compound; for inhibition at 0.05 µM: U-937, 50 nM compound; for IC50: intracellular enzyme activity
Protocol: After incubation at 37° C. for 1 h, add h-Gly-phe-AFC (10 μL) to each well and start reaction.

DPP1, sequence (P53634 25-463): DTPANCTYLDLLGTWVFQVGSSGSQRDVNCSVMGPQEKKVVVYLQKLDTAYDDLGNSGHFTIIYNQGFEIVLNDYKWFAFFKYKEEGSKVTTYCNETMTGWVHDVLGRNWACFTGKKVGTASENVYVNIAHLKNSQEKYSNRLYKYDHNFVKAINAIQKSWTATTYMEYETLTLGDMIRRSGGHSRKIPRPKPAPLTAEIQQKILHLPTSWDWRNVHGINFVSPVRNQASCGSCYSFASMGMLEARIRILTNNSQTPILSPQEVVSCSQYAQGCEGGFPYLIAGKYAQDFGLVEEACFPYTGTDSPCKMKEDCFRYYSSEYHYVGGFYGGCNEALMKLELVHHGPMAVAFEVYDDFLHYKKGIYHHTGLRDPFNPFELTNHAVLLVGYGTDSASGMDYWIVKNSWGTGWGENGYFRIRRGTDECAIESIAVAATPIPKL

Structure (SMILES)	inhibition at 0.005 µM [%]	inhibition at 0.05 µM [%]	IC50 [nM]	Average Inhibition % @5 nM (5 nM compound)	Average Inhibition % @50 nM (50 nM compound)
Cn1c(=O)oc2ccc(-c3ccc(C[C@@H](C#N)NC(=O)[C@@H]4CNCCCO4)cc3)cc21 [AZD7986, Brensocatib, reference compound]	30 to 75	75 to 100			
N#C[C@H](Cc1ccc(-c2ccc3nccn3c2)cc1)NC(=O)[C@@H]1CNCCCO1 [Compound D01]				− (“−”: inhibition % < 30%)	− (“−”: inhibition % < 30%)
N#C[C@H](Cc1ccc(-c2ccc3oc(=O)n(C4COC4)c3c2)cc1)NC(=O)[C@@H]1CNCCCO1 [Compound D03]	< 30	30 to 75			
N#C[C@H](Cc1ccc(-c2ccc3nncn3c2)cc1)NC(=O)[C@@H]1CNCCCO1 [Compound D05]	< 30	< 30			
N#C[C@H](Cc1ccc(-c2ccc3nnnn3c2)cc1)NC(=O)[C@@H]1CNCCCO1 [Compound D06]	< 30	< 30			
N#C[C@H](Cc1ccc(-c2ccc3c(c2)OC(F)(F)O3)cc1)NC(=O)[C@@H]1CNCCCO1 [Compound D07]	< 30	30 to 75			
N#C[C@H](Cc1ccc(-c2ccc3c(c2)CC(=O)C3)cc1)NC(=O)[C@@H]1CNCCCO1 [Compound D08]	< 30	30 to 75			
N#C[C@H](Cc1ccc(-c2ccc3c(c2)C(=O)CO3)cc1)NC(=O)[C@@H]1CNCCCO1 [Compound D10]	< 30	30 to 75			
CN1Cc2cc(-c3ccc(C[C@@H](C#N)NC(=O)[C@@H]4CNCCCO4)cc3)sc2C1=O [Compound D12]	< 30	< 30			
N#C[C@H](Cc1ccc(-c2cc3c(s2)CNC3=O)cc1)NC(=O)[C@@H]1CNCCCO1 [Compound D13]	< 30	< 30			
CN1Cc2sc(-c3ccc(C[C@@H](C#N)NC(=O)[C@@H]4CNCCCO4)cc3)cc2C1=O [Compound D14]	< 30	30 to 75			
CN1CCN(S(=O)(=O)c2ccc(-c3ccc(C[C@@H](C#N)NC(=O)[C@@H]4CNCCCO4)cc3)cc2)CC1 [Compound D16]	< 30	30 to 75			
Cn1c(=O)oc2cc(-c3ccc(C[C@@H](C#N)NC(=O)[C@@H]4CNCCCO4)cc3)ccc21 [Compound D17]	< 30	30 to 75			
CN1CCc2nc(-c3ccc(C[C@@H](C#N)NC(=O)[C@@H]4CNCCCO4)cc3)sc2C1 [Compound D18]	< 30	30 to 75			
N#C[C@H](Cc1ccc(-c2ccc3c(c2)C2(COC2)OC3)cc1)NC(=O)[C@@H]1CNCCCO1 [Compound D22]	30 to 75	75 to 100			
CNS(=O)(=O)c1ccc(-c2ccc(C[C@@H](C#N)NC(=O)[C@@H]3CNCCCO3)cc2)cc1 [Compound D23]	< 30	< 30			
CN1CC(n2c(=O)oc3ccc(-c4ccc(C[C@@H](C#N)NC(=O)[C@@H]5CNCCCO5)cc4)cc32)C1 [Compound D24]	30 to 75	75 to 100			
CN1CCC2(CC1)OC(=O)c1ccc(-c3ccc(C[C@@H](C#N)NC(=O)[C@@H]4CNCCCO4)cc3)cc12 [Compound D25]	30 to 75	75 to 100			
CN1CCC2(CC1)OCc1ccc(-c3ccc(C[C@@H](C#N)NC(=O)[C@@H]4CNCCCO4)cc3)cc12 [Compound D27]	< 30	30 to 75			
N#C[C@H](Cc1ccc(-c2ccc3c(n2)C2(CCN(C4COC4)CC2)OC3=O)cc1)NC(=O)[C@@H]1CNCCCO1 [Compound D28]	30 to 75	75 to 100			
CN1CCC2(CC1)OC(=O)c1ccc(-c3ccc(C[C@@H](C#N)NC(=O)[C@@H]4CNCCCO4)cc3)nc12 [Compound D29]	30 to 75	75 to 100			
N#C[C@H](Cc1ccc(-c2ccc3c(n2)C2(CCN(C4COC4)CC2)OC3)cc1)NC(=O)[C@@H]1CNCCCO1 [Compound D30]	< 30	30 to 75			
CN1CCC2(CC1)OCc1ccc(-c3ccc(C[C@@H](C#N)NC(=O)[C@@H]4CNCCCO4)cc3)nc12 [Compound D31]	< 30	30 to 75			
C[C@H](O)Cn1c(=O)oc2ccc(-c3ccc(C[C@@H](C#N)NC(=O)[C@@H]4CNCCCO4)cc3)cc21 [Compound D32]	< 30	30 to 75			
CO[C@@H](C)Cn1c(=O)oc2ccc(-c3ccc(C[C@@H](C#N)NC(=O)[C@@H]4CNCCCO4)cc3)cc21 [Compound D33]	< 30	30 to 75			
C[C@@H](O)Cn1c(=O)oc2ccc(-c3ccc(C[C@@H](C#N)NC(=O)[C@@H]4CNCCCO4)cc3)cc21 [Compound D34]	< 30	30 to 75			
CO[C@H](C)Cn1c(=O)oc2ccc(-c3ccc(C[C@@H](C#N)NC(=O)[C@@H]4CNCCCO4)cc3)cc21 [Compound D35]	< 30	30 to 75			
CN1CCC2(C1)OCc1ccc(-c3ccc(C[C@@H](C#N)NC(=O)[C@@H]4CNCCCO4)cc3)cc12 (stereo partly shown) [Compound D36]	< 30	30 to 75			
CN1CCC2(CC1)OC(=O)c1cnc(-c3ccc(C[C@@H](C#N)NC(=O)[C@@H]4CNCCCO4)cc3)cc12 [Compound D38]	< 30	30 to 75			
CN1CCC2(CC1)OCc1cnc(-c3ccc(C[C@@H](C#N)NC(=O)[C@@H]4CNCCCO4)cc3)cc12 [Compound D39]	< 30	30 to 75			

Second part, led by results:

inhibition at 0.005 µM [%]	inhibition at 0.05 µM [%]	IC50 [nM]	Structure (SMILES)	Average Inhibition % @5 nM (5 nM compound)	Average Inhibition % @50 nM (50 nM compound)
< 30	30 to 75		CN1CCC2(C1)OC(=O)c1ccc(-c3ccc(C[C@@H](C#N)NC(=O)[C@@H]4CNCCCO4)cc3)cc12 (stereo partly shown) [Compound D37]		
30 to 75	75 to 100	15	CC1(C)OC(=O)c2ccc(-c3ccc(C[C@@H](C#N)NC(=O)[C@@H]4CNCCCO4)cc3)cc21 [Compound D42]		
< 30	30 to 75		N#C[C@H](Cc1ccc(-c2ccc3c(c2)C(=O)CC3)cc1)NC(=O)[C@@H]1CNCCCO1 [Compound D43]		
< 30	30 to 75		N#C[C@H](Cc1ccc(-c2ccc3c(c2)C(=O)OC3)cc1)NC(=O)[C@@H]1CNCCCO1 [Compound D45]		
< 30	75 to 100		Cn1c(=O)oc2ccc(-c3ccc(C[C@@H](C#N)NC(=O)[C@@H]4CNCC5(CC5)CO4)nc3)cc21 [Compound D47]		
30 to 75	75 to 100	12	Cn1c(=O)oc2ccc(-c3ccc(C[C@@H](C#N)NC(=O)[C@@H]4CNCC5(CC5)CO4)nn3)cc21 [Compound D48]		
< 30	30 to 75		Cn1c(=O)oc2ccc(-c3ccc(C[C@@H](C#N)NC(=O)[C@@H]4CNCc5ccccc5O4)cc3)cc21 [Compound D49]		
		> 1000	Cn1c(=O)oc2ccc(-c3ccc(C[C@@H](C#N)NC(=O)[C@@H]4CNCC(C)(C)CO4)cc3)cc21 [Compound D50]		
		> 1000	Cn1c(=O)oc2ccc(-c3ccc(C[C@@H](C#N)NC(=O)[C@@H]4CNCC(F)(F)CO4)cc3)cc21 [Compound D51]		
< 30	30 to 75		Cn1c(=O)oc2ccc(-c3ccc(C[C@@H](C#N)NC(=O)[C@@H]4COCC[C@@H]4N)cc3)cc21 [Compound D52]		
		16	Cn1c(=O)oc2ccc(-c3ccc(C[C@@H](C#N)NC(=O)[C@@H]4CNCCCO4)s3)cc21 [Compound D53]		
30 to 75	30 to 75		Cn1c(=O)oc2ccc(-c3ccc(C[C@@H](C#N)NC(=O)[C@@H]4CNC[C@H](F)CO4)cc3)cc21 [Compound D54]		
		6.4	Cn1c(=O)oc2ccc(-c3ccc(C[C@@H](C#N)NC(=O)[C@@H]4CNC[C@@H](F)CO4)c(F)c3)cc21 [Compound D55]		
< 30	30 to 75		N#C[C@H](Cc1ccc(-c2ccc3c(c2)C2(CN(C4COC4)C2)OC3=O)cc1F)NC(=O)[C@@H]1CNCCCO1 [Compound D56]		
< 30	30 to 75		Cn1cnc(-n2c(=O)oc3ccc(-c4ccc(C[C@@H](C#N)NC(=O)[C@@H]5CNCCCO5)c(F)c4)cc32)c1 [Compound D62]		
< 30	< 30		Cn1cnc(-n2c(=O)oc3ccc(-c4ccc(C[C@@H](C#N)NC(=O)[C@@H]5CNCCCO5)c(F)c4)cc32)n1 [Compound D64]		
	30 to 75		CO/N=C1\CCc2cc(-c3ccc(C[C@@H](C#N)NC(=O)[C@@H]4CNCCCO4)c(F)c3)ccc21 [Compound D65]		
< 30	< 30		Cn1c(=O)oc2ncc(-c3ccc(C[C@@H](C#N)NC(=O)[C@@H]4CNCCCO4)c(F)c3)nc21 [Compound D66]		
< 30	< 30		N#C[C@H](Cc1ccc(-c2ccc3oc(=O)n(C4CC(=O)C4)c3c2)cc1F)NC(=O)[C@@H]1CNCCCO1 [Compound D68]		
< 30	< 30		N#C[C@H](Cc1ccc(-c2ccc3oc(=O)n(C4CC(O)C4)c3c2)cc1F)NC(=O)[C@@H]1CNCCCO1 (stereo partly shown) [Compound D69]		
< 30	< 30		N#C[C@H](Cc1ccc(-c2ccc3oc(=O)n(C4CS(=O)(=O)C4)c3c2)cc1F)NC(=O)[C@@H]1CNCCCO1 [Compound D71]		
< 30	< 30		N#C[C@H](Cc1ccc(-c2ccc3c(c2)C2(CS(=O)(=O)C2)OC3=O)cc1F)NC(=O)[C@@H]1CNCCCO1 [Compound D72]		
< 30	75 to 100		CN(C)CC1OC(=O)c2ccc(-c3ccc(C[C@@H](C#N)NC(=O)[C@@H]4CNCCCO4)c(F)c3)cc21 (stereo partly shown) [Compound D76]		
